The assay has as its target Factor D (Homo sapiens (Human), UniProt P00746). The assay is described as follows: biochemical. Format: biochemical. As to conditions: read-out: IC50.

pIC50: −log10 of the molar value.

Factor D, sequence (P00746 26-253): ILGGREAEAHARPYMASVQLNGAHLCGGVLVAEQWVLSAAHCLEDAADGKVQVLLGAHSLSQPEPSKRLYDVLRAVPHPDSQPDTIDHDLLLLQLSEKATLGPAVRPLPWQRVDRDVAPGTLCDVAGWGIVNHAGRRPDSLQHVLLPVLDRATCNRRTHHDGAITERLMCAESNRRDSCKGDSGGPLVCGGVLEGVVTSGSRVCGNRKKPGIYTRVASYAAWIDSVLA

For orientation: pIC50 means the negative decadic logarithm of the IC50, by convention in mol/L. Consider `NC[C@H]1CC[C@@H](C(=O)Nc2cccc(OC(F)(F)F)c2)N1C(=O)Nc1cn(C(N)=O)c2ccccc12` [Example 402, (2S,5R)-5-Aminomethyl-pyrrolidine-1,2-dicarboxylic acid 1-[(1-carbamoyl-1H-indol-3-yl)-amide]2-[(3-trifluoromethoxy-phenyl)-amide]], for which the negative-log IC50 (pIC50) was 6.52.

As to `NC[C@H]1C[C@@H](C(=O)Nc2cccc(OC(F)(F)F)c2)N(C(=O)Nc2cn(C(N)=O)c3ccccc23)C1` [Example 403, (2S,4R)-4-Aminomethyl-pyrrolidine-1,2-dicarboxylic acid 1-[(1-carbamoyl-1H-indol-3-yl)-amide]2-[(3-trifluoromethoxy-phenyl)-amide]], the pIC50 is 6.00.

For `NC[C@@H]1C[C@@H](C(=O)Nc2cccc(OC(F)(F)F)c2)N(C(=O)Nc2cn(C(N)=O)c3ccccc23)C1` [Example 404, (2S,4S)-4-Aminomethyl-pyrrolidine-1,2-dicarboxylic acid 1-[(1-carbamoyl-1H-indol-3-yl)-amide]2-[(3-trifluoromethoxy-phenyl)-amide]], the pIC50 was 6.00.

As for `NC[C@H]1C[C@@H](C(=O)NCc2cccc(Cl)c2F)N(C(=O)Nc2cn(C(N)=O)c3ccccc23)C1` [Example 405, 2S,4R)-4-Aminomethyl-pyrrolidine-1,2-dicarboxylic acid 1-[(1-carbamoyl-1H-indol-3-yl)-amide]2-(3-chloro-2-fluoro-benzylamide], the pIC50 is 6.53.

For `CN(C)C[C@H]1C[C@@H](C(=O)NCc2cccc(Cl)c2F)N(C(=O)Nc2cn(C(N)=O)c3ccccc23)C1` [Example 406, 2S,4R)-4-Dimethylaminomethyl-pyrrolidine-1,2-dicarboxylic acid 1-[(1-carbamoyl-1H-indol-3-yl)-amide]2-(3-chloro-2-fluoro-benzylamide], the pIC50 is 6.82.

As to `NC[C@@]1(O)C[C@@H](C(=O)NCc2cccc(Cl)c2F)N(C(=O)Nc2cn(C(N)=O)c3ccccc23)C1` [Example 407, 2S,4S)-4-Aminomethyl-4-hydroxy-pyrrolidine-1,2-dicarboxylic acid 1-[(1-carbamoyl-1H-indol-3-yl)-amide]2-(3-chloro-2-fluoro-benzylamide], the pIC50 was 5.98.

Take `NC[C@]1(F)C[C@@H](C(=O)NCc2cccc(Cl)c2F)N(C(=O)Nc2cn(C(N)=O)c3ccccc23)C1` [Example 408, 2S,4R)-4-Aminomethyl-4-fluoro-pyrrolidine-1,2-dicarboxylic acid 1-[(1-carbamoyl-1H-indol-3-yl)-amide]2-(3-chloro-2-fluoro-benzylamide]: the negative logarithm of the IC50 (pIC50) is 5.85.

`NC[C@@]1(F)C[C@@H](C(=O)NCc2cccc(Cl)c2F)N(C(=O)Nc2cn(C(N)=O)c3ccccc23)C1` [Example 409, 2S,4S)-4-Aminomethyl-4-fluoro-pyrrolidine-1,2-dicarboxylic acid 1-[(1-carbamoyl-1H-indol-3-yl)-amide]2-(3-chloro-2-fluoro-benzylamide]: the pIC50 was 7.60.

As to `NC(=O)n1cc(NC(=O)N2C[C@@](F)(CNC=O)C[C@H]2C(=O)NCc2cccc(Cl)c2F)c2ccccc21` [Example 410, 2S,4S)-4-Fluoro-4-formylaminomethyl-pyrrolidine-1,2-dicarboxylic acid 1-[(1-carbamoyl-1H-indol-3-yl)-amide]2-(3-chloro-2-fluoro-benzylamide], the pIC50 is 7.82.

With `NC[C@@]1(F)C[C@@H](C(=O)NCc2c(F)ccc(Cl)c2F)N(C(=O)Nc2cn(C(N)=O)c3ccccc23)C1` [Example 411, (2S,4S)-4-aminomethyl-4-fluoro-pyrrolidine-1,2-dicarboxylic acid 1-[(1-carbamoyl-1H-indol-3-yl)-amide]2-(3-chloro-2,6-difluoro-benzylamide)], the pIC50 was 7.59.

Regarding `CC(=O)n1cc(NC(=O)N2C[C@@](F)(CN)C[C@H]2C(=O)NCc2cccc(Cl)c2F)c2ccccc21` [Example 412, 2S,4S)-4-Aminomethyl-4-fluoro-pyrrolidine-1,2-dicarboxylic acid 1-[(1-acetyl-1H-indol-3-yl)-amide]2-(3-chloro-2-fluoro-benzylamide], the pIC50 is 7.85.

In the case of `NC[C@@]1(F)C[C@@H](C(=O)N[C@H](CF)c2cccc(Br)c2)N(C(=O)Nc2cn(C(N)=O)c3ccccc23)C1` [Example 413, (2S,4S)-4-Aminomethyl-4-fluoro-pyrrolidine-1,2-dicarboxylic acid 2-{[(S)-1-(3-bromo-phenyl)-2-fluoro-ethyl]-amide}1-[(1-carbamoyl-1H-indol-3-yl)-amide]], the pIC50 is 7.00.

For the compound `NC[C@@]1(F)C[C@@H](C(=O)Nc2cccc(OC(F)(F)F)c2)N(C(=O)Nc2cn(C(N)=O)c3ccccc23)C1` [Example 414, (2S,4S)-4-Aminomethyl-4-fluoro-pyrrolidine-1,2-dicarboxylic acid 1-[(1-carbamoyl-1H-indol-3-yl)-amide]2-[(3-trifluoromethoxy-phenyl)-amide]], the negative logarithm of the IC50 (pIC50) is 6.51.

In the case of `NC(=O)n1cc(NC(=O)N2C[C@H](N)[C@@H](O)[C@H]2C(=O)NCc2cccc(Cl)c2F)c2ccccc21` [Example 416, 2S,3R,4S)-4-Amino-3-hydroxy-pyrrolidine-1,2-dicarboxylic acid 1-[(1-carbamoyl-1H-indol-3-yl)-amide]2-(3-chloro-2-fluoro-benzylamide], the pIC50 is 6.50.

For `NC(=O)n1cc(NC(=O)N2CC[C@@H](N)[C@H]2C(=O)NCc2cccc(Cl)c2F)c2ccccc21` [Example 417, 2S,3R)-3-Amino-pyrrolidine-1,2-dicarboxylic acid 1-[(1-carbamoyl-1H-indol-3-yl)-amide]2-(3-chloro-2-fluoro-benzylamide], the pIC50 is 7.40.

On to `NC(=O)n1cc(NC(=O)N2CC[C@@H](N)[C@H]2C(=O)N[C@@H](c2cccc(Cl)c2F)C(F)(F)F)c2ccccc21` [Example 419, (2S,3R)-3-Amino-pyrrolidine-1,2-dicarboxylic acid 1-[(1-carbamoyl-1H-indol-3-yl)-amide]2-{[(S)-1-(3-chloro-2-fluoro-phenyl)-2,2,2-trifluoro-ethyl]-amide}], for which the negative-log IC50 (pIC50) is 6.32.

For `NC(=O)n1cc(NC(=O)N2CC[C@H](N)[C@H]2C(=O)NCc2cccc(Cl)c2F)c2ccccc21` [Example 420, 2S,3S)-3-Amino-pyrrolidine-1,2-dicarboxylic acid 1-[(1-carbamoyl-1H-indol-3-yl)-amide]2-(3-chloro-2-fluoro-benzylamide], the negative logarithm of the IC50 (pIC50) is 5.94.

On to `NC(=O)n1cc(NC(=O)N2CC[C@H](N)[C@H]2C(=O)NCc2cccc(Cl)c2)c2ccccc21` [Example 421, 2S,3S)-3-Amino-pyrrolidine-1,2-dicarboxylic acid 1-[(1-carbamoyl-1H-indol-3-yl)-amide]2-(3-chloro-benzylamide], for which the pIC50 is 5.03.

With `CNC[C@@]1(F)C[C@@H](C(=O)NCc2cccc(Cl)c2F)N(C(=O)Nc2cn(C(N)=O)c3ccccc23)C1` [Example 424, 2S,4S)-4-Fluoro-4-methylaminomethyl-pyrrolidine-1,2-dicarboxylic acid 1-[(1-carbamoyl-1H-indol-3-yl)-amide]2-(3-chloro-2-fluoro-benzylamide], the pIC50 was 7.17.

As for `CN[C@H]1C[C@@H](C(=O)NCc2cccc(Cl)c2F)N(C(=O)Nc2cn(C(N)=O)c3ccccc23)C1` [Example 425, 2S,4S)-4-Methylamino-pyrrolidine-1,2-dicarboxylic acid 1-[(1-carbamoyl-1H-indol-3-yl)-amide]2-(3-chloro-2-fluoro-benzylamide], the pIC50 is 5.91.

As to `COCCN[C@H]1C[C@@H](C(=O)NCc2cccc(Cl)c2F)N(C(=O)Nc2cn(C(N)=O)c3ccccc23)C1` [Example 426, 2S,4S)-4-(2-Methoxy-ethylamino)-pyrrolidine-1,2-dicarboxylic acid 1-[(1-carbamoyl-1H-indol-3-yl)-amide]2-(3-chloro-2-fluoro-benzylamide], the pIC50 is 6.36.

For `CN(C)[C@H]1C[C@@H](C(=O)NCc2cccc(Cl)c2F)N(C(=O)Nc2cn(C(N)=O)c3ccccc23)C1` [Example 427, 2S,4S)-4-Dimethylamino-pyrrolidine-1,2-dicarboxylic acid 1-[(1-carbamoyl-1H-indol-3-yl)-amide]2-(3-chloro-2-fluoro-benzylamide], the negative-log IC50 (pIC50) was 6.18.

On to `COC1(OC)C[C@@H](C(=O)NCc2cccc(Cl)c2F)N(C(=O)Nc2cn(C(N)=O)c3ccccc23)C1` [Example 428, S)-4,4-Dimethoxy-pyrrolidine-1,2-dicarboxylic acid 1-[(1-carbamoyl-1H-indol-3-yl)-amide]2-(3-chloro-2-fluoro-benzylamide], for which the pIC50 is 6.32.

On to `NC(=O)n1cc(NC(=O)N2C[C@@H](N)[C@H](O)[C@H]2C(=O)NCc2cccc(Cl)c2F)c2ccccc21` [Example 429, 2S,3S,4R)-4-Amino-3-hydroxy-pyrrolidine-1,2-dicarboxylic acid 1-[(1-carbamoyl-1H-indol-3-yl)-amide]2-(3-chloro-2-fluoro-benzylamide], for which the pIC50 was 5.98.

On to `NC(=O)n1cc(NC(=O)N2C[C@@H](N)[C@H](F)[C@H]2C(=O)NCc2cccc(Cl)c2F)c2ccccc21` [Example 430, 2R,3S,4R)-4-Amino-3-fluoro-pyrrolidine-1,2-dicarboxylic acid 1-[(1-carbamoyl-1H-indol-3-yl)-amide]2-(3-chloro-2-fluoro-benzylamide], for which the pIC50 was 7.24.

On to `NC(=O)n1cc(NC(=O)N2C[C@H](F)[C@@H](N)[C@H]2C(=O)NCc2cccc(Cl)c2F)c2ccccc21` [Example 431, 2S,3S,4S)-3-Amino-4-fluoro-pyrrolidine-1,2-dicarboxylic acid 1-[(1-carbamoyl-1H-indol-3-yl)-amide]2-(3-chloro-2-fluorobenzylamide], for which the pIC50 is 7.51.

As for `NC(=O)n1cc(NC(=O)N2NCC[C@H]2C(=O)NCc2cccc(Cl)c2F)c2ccccc21` [Example 432], the pIC50 was 8.15.

`NC(=O)n1cc(NC(=O)N2NCC[C@@H]2C(=O)NCc2cccc(Cl)c2F)c2ccccc21` [Example 433]: the pIC50 is 5.75.

As to `NC(=O)n1cc(NC(=O)N2NCCC2C(=O)NCc2cccc(Cl)c2)c2ccccc21` (centres unmarked) [Example 434, Pyrazolidine-1,5-dicarboxylic acid 1-[(1-carbamoyl-1H-indol-3-yl)-amide]5-(3-chloro-benzylamide)], the pIC50 was 7.46.

The values are drawn from US9085555B2, “Complement pathway modulators and uses thereof” (priority 2011, dated 2015).
